Target: α7 nAChR Subtype (Rattus norvegicus, UniProt Q05941)
Format: binding
Settings: read-out: KD of radioligand

α7 nAChR Subtype, sequence (Q05941 23-502 limits assumed): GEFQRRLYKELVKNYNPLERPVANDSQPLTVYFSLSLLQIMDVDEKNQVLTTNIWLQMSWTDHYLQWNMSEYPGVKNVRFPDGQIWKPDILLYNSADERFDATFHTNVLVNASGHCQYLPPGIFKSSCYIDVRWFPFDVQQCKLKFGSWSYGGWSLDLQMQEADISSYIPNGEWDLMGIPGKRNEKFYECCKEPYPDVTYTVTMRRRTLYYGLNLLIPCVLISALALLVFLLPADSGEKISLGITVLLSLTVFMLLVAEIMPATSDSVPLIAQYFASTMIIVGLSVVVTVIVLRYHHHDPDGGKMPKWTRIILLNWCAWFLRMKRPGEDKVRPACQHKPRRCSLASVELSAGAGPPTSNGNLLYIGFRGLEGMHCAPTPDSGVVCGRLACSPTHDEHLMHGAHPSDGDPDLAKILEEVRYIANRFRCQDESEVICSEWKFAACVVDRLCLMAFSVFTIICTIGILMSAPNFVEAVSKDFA

**Q.** Which Kd does the source give for [^125I]α-Bungarotoxin [[^125I]-α-BTX] here?
**A.** Its Kd is 1.67 nM.

Source: US7417049B2 (priority 2002, dated 2008)
